Data as given in patent US5670479A, “α-ketoamide derivatives as inhibitors of thrombosis” (Corvas International, Inc., priority 1994, dated 1997).

Legend:
a-thrombin = a-thrombin (Homo sapiens, UniProt P00734); assay: Thrombin-induced clotting of purified fibrinogen; type: biochemical; settings: preincubation with a-thrombin 0, 30, 60 minutes before fibrinogen
Method: The clotting time of fibrinogen following the addition of the thrombin/inhibitor complex was measured optically using the Coag-A-Mate XC automated coagulometer (General Diagnostics, Organon Technica, Oklahoma City, Okla.).
This inhibition is reflected as an increase in the relative clotting time which is the ratio of the […]. The control clotting time in this assay is 16.2±0.78 sec.

[1] = system: Male Harlan Sprague Dawley rats; assay: Venous stasis model in rats; type: in vivo; settings: rat; for % Clot: mean ± S.E.M.
Method: This is one of the most commonly used models in the evaluation of antithrombotic compounds. Hladovec, J. Thromb. […] Talbot, M. D., et. al., Thromb.
Male Harlan Sprague Dawley rats (420-450 g) were acclimated at least 72 hours prior to use. The animals were fasted for 12 hours prior to surgery with free access to water. The animals were anesthetized with a sodium pentobarbital (Nembutal) given intraperitoneally at a dose of 50 mg/kg body weight and placed on a isothermal pad to maintain body temperature. The level of anesthesia was monitored every 15 minutes by: neuro-response to a tail pinch, respiration and body core temperature. The desired depth of surgical anesthesia was maintained by administering subsequent doses (5 mg/kg) intravenously. The left femoral artery was catheterized with polyethylene tubing (PE50) using standard procedures for blood pressure monitoring and blood sampling. The left and right femoral veins were catheterized with PE50 tubing for delivery of anesthetic and test compounds respectively.
Blood pressure, heart rate, core temperature and respiration were monitored continuously.
The abdomen of the animals is opened by making a vertical midline incision followed by isolation of the IVC using dissection. The segment extends from below the renal to above the iliac vessels (about 2 cm in length). The peripheral blood vessels are tied off and a ligature is loosely placed at the distal and proximal ends of the isolated segment. Rabbit brain thromboplastin (RBT)(Sigma Chemical Co., St. Louis Mo.) is prepared by resuspending the contents of the vial with 2 mL of sterile saline pre-warmed to 37° C. At the end of the 30 minute infusion period, RBT is systemically administered as a bolus injection (1.5 mL/kg) via the femoral catheter. Stasis is induced within the isolated IVC segment by securing the proximal and distal ligature 10 sec following the administration of the RBT. Following a 30 minute period of stasis the tied off IVC segment is removed and the contents weighed. Clot formation was defined as %clot: [Weight of the isolated clot/(Weight of the intact segment-the weight of the empty segment)] ×100. This method was used to correct for slight differences in segment size and fluid content.
Following termination of the experiment the animal was euthanized with a 120 mg/kg dose of Nembutal.

[2] = system: Male Harlan Sprague Dawley rats; assay: Rat model of FeCl3-induced platelet-dependent arterial thrombosis; type: in vivo
Description: Kurz, K. D., Main, B. W., and Sandusky, G. E., Thromb. Res., 60: 269-280. (1990). In this model a platelet-rich, occlusive thrombus is formed in a segment of the rat carotid artery treated with a fresh solution of FeCl3 absorbed to a piece of filter paper. The FeCl3 is thought to diffuse into the treated segment of artery and causes de-endothelialization resulting in thrombus formation. The effect of a test compound on the incidence of occlusive thrombus formation following the application of the FeCl3 is monitored by ultrasonic flowtometry and is used as the primary end point. The use of flowtometry is a modification of the original procedure in which thermal detection of clot formation was employed. Kurz, K. D., Main, B. W., and Sandusky, G. E., Thromb. Res., 60: 269-280 (1990).
Male Harlan Sprague Dawley rats (420-450 g) were acclimated at least 72 hours prior to use and fasted for 12 hours prior to surgery with free access to water. The animals were prepared, anesthetized with Nembutal with catheters for blood pressure monitoring, drug and anesthesia delivery being implanted as described above. The left carotid artery was exposed and isolated by making a midline cervical incision followed by blunt dissection and spreading techniques to separate a 2 cm segment of the vessel from the carotid sheath. A silk suture is inserted under the proximal and distal ends of the isolated vessel to provide clearance for the placement of a ultrasonic flow probe (Transonic) around the proximal end of the vessel. The probe is then secured with a stationary arm.
The test compounds were administered as described above after placement of the flow probe and stabilization of the preparation for a period of 60 minutes prior to the thrombogenic stimulus. At t=0, a 3 mm diameter piece of filter paper (Whatman #3) soaked with […] of a 35% solution of fresh FeCl3 (in water) was applied the segment of isolated carotid artery distal to the flow probe. Blood pressure, blood flow, heart rate, and respiration were monitored for 60 minutes.
The incidence of occlusion (defined as the attainment of zero blood flow) was recorded as the primary end point. Following the 60 minute observation period the flow probe was removed and the area cleared of all excess fluid. The distal and proximal sutures were tied off and arterial clamps placed on the far proximal and distal ends of the segment. The isolated segment was cut out, blotted dry on filter paper and weighed. The segment was re-weighed following removal of the clot and the difference recorded as total % clot (see above). Weights were recorded on only those segments which had detectable thrombus. Following the procedure the animals were euthanized as described above.

clot-bound a-thrombin = target: T1, clot-bound a-thrombin (Homo sapiens, UniProt P00734); assay: Inhibition of clot-bound thrombin (FPA generation in citrated plasma); type: biochemical
T1 construct: from tissue; host or cells: washed clots formed from citrated plasma by adding CaCl2
Method: Plasma clots were formed around wire hooks by the addition of CaCl2 (final concentration, 25 mM) to 500 μl aliquots of citrated plasma. After aging the clots for 60 minutes at 37° C. with constant agitation, the clots were washed 10 times with 2 ml aliquots of 0.1M NaCl buffered with 0.05M Tris-HCL, pH 7.4 over an 18 hour period. The washed clots were then incubated in 1 ml aliquots of citrated plasma for 60 minutes at 37° C. in the absence or presence of the various inhibitors. At timed intervals, 100 μl aliquots were removed and the reaction was terminated by the addition of the irreversible serine protease inhibitor, D-phenylalanyl-prolinyl-argininyl-CH2 Cl.
Unreacted fibrinogen was precipitated with ethanol, and the ethanol supernatants were then assayed for FPA.

baboons [3] = settings: baboon; dose which gives a 50% inhibition of platelet deposition; other direct antithrombins evaluated earlier in this model; cited from earlier work
baboons [4] = settings: baboon, other direct antithrombins evaluated earlier in this model, cited from earlier work
[5] = Group 4: 0.1 mg/kg i.v. bolus + 40 mg/kg/min i.v. infusion

(D-Phe)-Pro-Arg-Pro-(Gly)4 -Asn-Gly-Asp-Phe-Glu-Glu-Ile-Pro-Glu-Glu-Tyr-Leu-OH [Hirulog-1]
proteolytic inactivation by thrombin on preincubation (a-thrombin): sensitive to proteolytic degradation
% Clot ([1]; 0.1 mg/kg i.v. bolus + 40 mg/kg/min i.v. infusion): 25.75 ± 3.71%
% Clot ([1]; 0.1 mg/kg i.v. bolus + 60 mg/kg/min i.v. infusion): 26.50 ± 3.59%
% Clot ([1]; 0.1 mg/kg i.v. bolus + 80 mg/kg/min i.v. infusion): 25.75 ± 0.41%
effect on venous thrombus formation induced by stasis and thromboplastin ([1]; summary in words): did not have any effect
Incidence of Occlusion ([2]; Group 1: 0.1 mg/kg i.v. bolus + 5 mg/kg/min i.v. infusion): 3/3
% Clot ([2]; Group 1: 0.1 mg/kg i.v. bolus + 5 mg/kg/min i.v. infusion, mean ± S.E.M., segments with detectable thrombus): 70.1 ± 5.5%
Incidence of Occlusion ([2]; Group 2: 0.1 mg/kg i.v. bolus + 10 mg/kg/min i.v. infusion): 5/6
% Clot ([2]; Group 2: 0.1 mg/kg i.v. bolus + 10 mg/kg/min i.v. infusion, mean ± S.E.M., segments with detectable thrombus): 59.42 ± 4.34%
Incidence of Occlusion ([2]; Group 3: 0.1 mg/kg i.v. bolus + 20 mg/kg/min i.v. infusion): 5/6
% Clot ([2]; Group 3: 0.1 mg/kg i.v. bolus + 20 mg/kg/min i.v. infusion, mean ± S.E.M., segments with detectable thrombus): 45.3 ± 11.63%
% Clot [2, 5]: 0%
Incidence of Occlusion [2, 5]: 0/6
inhibition of clot-bound a-thrombin-mediated FPA generation (clot-bound a-thrombin; citrated human plasma, 60 min, 37° C., compound 8 18.75 nM, Hirulog-1 500 nM, rHIR 4 nM, FIG. 5B): only transiently inhibited FPA generation
inhibition of clot-bound versus fluid-phase thrombin at 60 minutes incubation (clot-bound a-thrombin; percent inhibition of FPA generation at 60 min, FIG. 6): less inhibitory activity against clot-bound thrombin
Antithrombotic Effects ED50 (baboons [3]): 125 nmol/kg/min
Antihemostatic Effects APTT (baboons [4]; control 32 sec): > 300 s
Antihemostatic Effects Bleeding Time (baboons [4]; control 4 min): 21 min
